Laboratory results as given in patent US5945450A, “Naphthalene derivative” (Teijin Limited, priority 1994, dated 1999).

Tests used:
Assay type in all cases: cell-based
[1] = system: TF (tissue factor); assay: Inhibitory effects on the TF production in LPS-stimulated human peripheral blood monocytes; details: Monocyte, LPS 1 μg/ml, 16 hours
Procedure: Peripheral venous blood was sampled from the healthy person, and submitted to density-gradient centrifugation so that monocytes might be isolated. The monocytes thus obtained were washed with minimum essential medium (MEM, Gibco) and suspended in a culture medium (RPMI-1640(Gibco)+25 mM HEPES buffer+100 μg/ml streptomycin+100 U/ml penicillin G+2 mM L-glutamine) to give a suspension with a density of 1×10^6 cells/ml. A 0.15 ml of the cell suspension was placed onto each of the wells of a 96-well microplate, to which the compound of this invention as described in Tables 4-1 to 4-2 was added (0.05 ml of the culture medium), and the assembly was placed for 1 hour in a CO2 incubator for cultivation. Then, LPS (lipopolysaccarides, E. coli 0111B4, Difco) 1 μg/ml was added thereto, and the assembly was further cultured for 16 hours. After the supernatant being removed, the residue was washed with physiological saline, 0.1 ml of 16 mM OG (n-octyl-β-D-glucopyranoside) was added thereto, and the assembly was stirred to make TF soluble. A 0.2 ml of physiological saline was added to each residue (final dilution was […]) and this preparation was used for determination of the coagulation stimulating activity (TF-like activity). The test compound had been dissolved in DMSO to give a 0.1 M solution which was diluted with the culture medium prior to use. The final concentration of DMSO was 0.01% or less.
To each well of the microplate, 50 μl of human plasma and 50 μl of the test sample prepared as above for determination of the coagulation stimulating activity, or 50 μl of standard thromboplastin (human thromboplastin, Thromborel S, Behringwerke) were added. The microplate was incubated at 37° C. for 5 minutes, to which was added 25 mM CaCl2 (50 μl/well) containing phosphorous lipids (Platelin, Organon Teknica) at a concentration of […] to initiate coagulation. Coagulation was determined on the basis of absorption at 540 nm, and the measurement lasted 7 to 20 minutes. The data were analyzed with a data analyzing software SOFTMax (Molecular Devices) and the maximum rate time was taken as the coagulation time. The logarithmic values of the coagulation times and standard thromboplastin concentrations are plotted, and a regression parabola was drawn among the dots to give a test curve. From the curve, the inhibitory effect (%) of a given test compound on TF production was calculated. (Refer to J. Imnmunol. Methods, 133:21-29, 1990, and Proc. Natl. Acad. Sci. USA, 89:10370-10374, 1992).

[2] = system: human IgG antibodies; assay: In vitro inhibition of human IgG antibody production (lymphocytes + IL-4 + anti CD40Ab + IL-10, ELISA); details: Lymphocyte
Procedure: According to the method described in J. Immunol., 146:1836-1842, 1991 and J. Immunol., 147:8-13, 1991, the concentrations of IgE and IgG antibodies were measured by the procedures described below.
Peripheral venous blood was sampled from the healthy person, and submitted to density-gradient centrifugation to isolate lymphocytes. The lymphocytes thus obtained were washed and suspended in a culture medium (RPMI-1640 (provided by Gibco)+10% heat-inactivated FCS (Whittaker)+100 µg/ml streptomycin+100 U/ml penicillin+2mM L-glutamine). The cell suspensions were cultured for 1 week in the presence/absence of the compounds of this invention at the concentrations as described in Tables 3-1 to 3-2 together with human interleukin 4 (IL-4, Genzyme)([…]), anti CD40 antibodies (anti CD40Ab, Biosource, clone B-B20)([…]) and human interleukin 10 (IL-10, Genzyme)([…]). The culture medium was supplied freshly to the cell suspension, and the mixture was further cultured for another week. The supernatant was sampled and the concentrations of IgE and IgG antibodies therein were measured by sandwich ELISA.
The ELISA was based, for the assay of IgE antibodies, on the use of rabbit anti-human IgE() antibodies (ICN) as the primary antibody and biotin-linked anti-human IgE monoclonal antibodies (G7-26, PharMingen) as the secondary antibody. For the assay of IgG antibodies, anti-human IgG monoclonal antibodies (G18-145, PharMingen) and biotin-linked donkey anti-human IgG antibodies (H+L)(Jackson) were used for the primary and secondary antibodies, respectively. For the assay of both IgE and IgG antibodies, Avidin-Biotin-Horse Radish Peroxidase (ABC kit, Vector Lab) and TMB (3,3',5,5'-tetramethylbenzidine) microwell peroxidase substrate system (Kirkegaard & Perry Laboratories Inc.) were used as the enzyme and the substrate, respectively. The assays were made by the use of conventionally known ELISA.
The inhibitory effect (%) of a given compound of this invention on the production of the antibody was calculated with respect to the concentration of the same antibody when the compound was not coexistent (refer to Uejima et al., American Academy of Allergy and Immunology, Proceedings of 1995 Annual Meeting, Program No. 818).

[3] = system: human basophils; assay: Inhibition of histamine release from human basophils; parameters: dose or concentration left out as unconfirmed
Procedure: To human heparinized peripheral blood was added 1/10 volume of 6% Dextran 500 in saline, and the mixture was allowed to stand at room temperature for 1 hour, to isolate a plasma layer containing leukocytes. The leukocytes were separated by centrifugation, washed with PIPE-A (119 mM NaCl, 5 mM KCl, 25 mM PIPES, 40 mM NaOH, 5.6 mM glucose, and 0.03% human serum albumin), and suspended in PIPES-ACM (PIPES A, 1 mM CaCl2 and 0.4 mM MgCl2) to give a cell suspension of a density of 4×10^6 cells /ml. To this cell suspension was added the compound of this invention listed in Table 7 as a test drug (0.1 M solution of the compound in DMSO was diluted with PIPES-ACM to give a […]), or the cell suspension was left untouched. After 30 second, calcium ionophore A23187 ([…]) was added. The reaction was allowed to proceed at 37 for 45 minutes. The resulting mixture was centrifuged to isolate a supernatant. Histamine release in the supernatant was determined by the fluorescent method. Inhibitory effect (%) of a given compound of this invention on histamine release was calculated relative to the histamine release when the compound was not coexistent(refer to Allergy, 37:313-321, 1988).

Row | SMILES | inhibition at 1 µM ([1]; 1 μM) [%] | inhibition at 3 µM [1] [%] | inhibition at 10 µM ([1]; 10 μM) [%] | inhibition at 1 µM [2] [%] | inhibition at 3 µM [2] [%] | inhibition at 10 µM [2] [%] | Inhibition of histamine release (%) [3] [%]
1 | O=C(Nc1ccccc1C(=O)O)c1ccc(Oc2ccc3ccccc3c2)cc1 [Compound No. 1104, 2-(4-(2-naphtyloxy)benzamide)benzoic Acid] | 45.3 | 90.4 | 100 | -4.7 | -6.2 | 20.5 | 20.4
2 | O=C(Cc1ccc(Oc2ccc3ccccc3c2)cc1)Nc1ccccc1C(=O)O [Compound No. 1126, 2-(4-(2-naphtyloxy)phenylacetamide)benzoic acid] | – | 26.5 | – | -5 | 35.4 | 84 | 55.8
